Laboratory results as given in patent US6811790B1, “Storage stable pesticide formulations containing azadirachtin” (E.I.D. Parry (India) Ltd., priority 2000, dated 2004).
Like-named read-outs stand apart in the source and are kept apart here.

Columns and labels:
[1] = 25 days at 29+/−1° C., cited from earlier work
[2] = Stability of azadirachtin A in a formulation, accelerated storage test and real time conditions; type: physicochemical
Protocol: The behavior of azadirachtin in real time and in accelerated conditions (especially at 54° C.) is quite different.

SMILES: C/C=C(\C)C(=O)O[C@H]1C[C@@H](OC(C)=O)[C@@]2(C(=O)OC)CO[C@H]3[C@@H](O)[C@@](C)([C@]45O[C@@]4(C)[C@@H]4C[C@H]5O[C@@H]5OC=C[C@@]54O)[C@H]4[C@]1(CO[C@]4(O)C(=O)OC)[C@@H]32 [azadirachtin A]
- degradation of azadirachtin A ([1]; in ethanol and water): about 80%
- degradation of azadirachtin A ([1]; in methanol and acetone): 50%
- degradation of azadirachtin A ([1]; in methylene chloride, carbon tetrachloride and chloroform): 75-80%
- degradation of azadirachtin A ([2]; accelerated storage test at 54° C., after 14 days): 66%
- degradation of azadirachtin A per month ([2]; real time conditions at 20° C.): approximately 0.9 % per month
- total degradation of azadirachtin A per year ([2]; real time conditions at 20° C.): 11 % per year
